Measured values from PubChem BioAssay (NCI).
Several values for one entry are separate records, joined by “and”; a condition that tells them apart may be missing. Equal values may be shown once.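 Protocol summary: plate cells (96-well), add compound at 5 concentrations, incubate 48 h, interpolate endpoints linearly. GI50 = concentration required for 50% inhibition of growth. TGI: concentration producing complete growth inhibition.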

How the values were obtained:
Experiment in all cases: NCI tumour cell line growth inhibition, 48 h
[1] = tested on: SNB-78 CNS
[2] = tested on: KM20L2 colon
[3] = tested on: XF 498 CNS
[4] = tested on: LXFL 529 NSCLC
[5] = tested on: HOP-18 NSCLC
[6] = tested on: RXF-631 renal
[7] = tested on: M19-MEL melanoma
[8] = tested on: MDA-N
[9] = tested on: P388 leukemia
[10] = tested on: PC-3 prostate

SMILES	TGI [1]	TGI [2]	TGI [3]	TGI [4]	TGI [5]	TGI [6]	TGI [7]	GI50 [8]	TGI [8]	TGI [9]	TGI [10]	GI50 [1]	GI50 [2]	GI50 [3]	GI50 [6]	GI50 [7]
CC(C)(C)OC(=O)N1N=NC2C1C1CC(OCc3ccccc3)(OCc3ccccc3)C2O1 (stereo unspecified)	> 100 µM	> 100 µM	30.3 µM	35 µM	> 100 µM	> 100 µM	> 100 µM	–	–	–	–	–	–	–	–	–
N#CC(C(=O)CCC(=O)Nc1cccc(C(F)(F)F)c1)c1ccc(Cl)cc1 (stereo unspecified)	> 100 µM	> 100 µM	> 100 µM	> 100 µM	> 100 µM	> 100 µM	> 100 µM	–	–	–	–	–	–	–	–	–
O=c1[nH]c(=O)n([C@H]2CCCO2)cc1F	–	–	–	–	–	–	–	357 µM	> 5000 µM	565 µM	> 5000 µM	–	–	–	–	–
CCOc1ccccc1NC(=O)C(C#N)C1=C(Cl)C(=O)c2ccccc2C1=O (stereo unspecified)	4.42 µM	–	3.75 µM and 3.24 µM	3.25 µM and 3.16 µM	2.85 µM	4.03 µM and 26.2 µM	0.351 µM and 0.872 µM	–	–	–	–	2.03 µM	17.7 µM	1.83 µM	6.8 µM	0.303 µM
CC1=C(C(=O)NNS(=O)(=O)c2ccc(C)cc2)CC(C(=O)NNS(=O)(=O)c2ccc(C)cc2)=C(C)N1	> 100 µM	> 100 µM	> 100 µM	> 100 µM	> 100 µM	> 100 µM	> 100 µM	–	–	–	–	–	–	–	–	–
